Results from PubChem BioAssay AID1963425 (Molecular Pharmacology Branch, DTP, NCI, 2024).
pIC50: −log10 of the molar value.

Tested on: 323965-272-R-J2-PDC complex spheroid growth, % test/control
Assay: Anticancer human tumor 323965-272-R-J2-PDC patient-derived pancreatic carcinoma cell line growth inhibition [Asc]
Details: for pIC50: curve of first compound; for viability, T/C: stronger effect = lower value
How it was run: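 Concentration series start at each agent's clinical Cmax, or at 10 microM when none is established, and drop in half-log steps; agents are applied alone or together to complex spheroids built with HUVEC and hMSC.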
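Further: compound exposure lasted 7 days starting three days after spheroid seeding.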
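Wherever viability, T/C is given: 100% = DMSO vehicle control wells with viability set relative to vehicle.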

pIC50 (second compound 0.0316 µM): < 5.00
pIC50 (second compound 0.1 µM): < 5.00
pIC50 (second compound 0.316 µM): 5.09
pIC50 (second compound 1 µM): 5.16
pIC50 (second compound 3.16 µM): 5.39
pIC50 (second compound 10 µM): 5.44
Structure (SMILES): C#Cc1c(F)ccc2cc(O)cc(-c3ncc4c(N5CC6CCC(C5)N6)nc(OCC56CCCN5CC(F)C6)nc4c3F)c12 (configuration not stated) + Cc1c(S(C)(=O)=O)c(-c2cc(F)cc(N3CCN(c4ccc(NS(=O)(=O)c5ccc(NC(CCN6CCC(C(=O)OCCCP(=O)(O)O)CC6)CSc6ccccc6)c(S(=O)(=O)C(F)(F)F)c5)cc4)CC3)c2)c(-c2ccc(Cl)cc2)n1C(C)C
viability, T/C (second compound 0.0316 µM, first compound 0.0316 µM): 99.9%
viability, T/C (second compound 0.0316 µM, first compound 0.1 µM): 98.2%
viability, T/C (second compound 0.0316 µM, first compound 0.316 µM): 109%
viability, T/C (second compound 0.0316 µM, first compound 1 µM): 108%
viability, T/C (second compound 0.0316 µM, first compound 3.16 µM): 79.4%
viability, T/C (second compound 0.0316 µM, first compound 10 µM): 58.2%
viability, T/C (second compound 0.1 µM, first compound 0.0316 µM): 100%
viability, T/C (second compound 0.1 µM, first compound 0.1 µM): 111%
viability, T/C (second compound 0.1 µM, first compound 0.316 µM): 93.2%
viability, T/C (second compound 0.1 µM, first compound 1 µM): 93.2%
viability, T/C (second compound 0.1 µM, first compound 3.16 µM): 75.7%
viability, T/C (second compound 0.1 µM, first compound 10 µM): 51.4%
viability, T/C (second compound 0.316 µM, first compound 0.0316 µM): 97.8%
viability, T/C (second compound 0.316 µM, first compound 0.1 µM): 99.1%
viability, T/C (second compound 0.316 µM, first compound 0.316 µM): 98.2%
viability, T/C (second compound 0.316 µM, first compound 1 µM): 90.6%
viability, T/C (second compound 0.316 µM, first compound 3.16 µM): 73.9%
viability, T/C (second compound 0.316 µM, first compound 10 µM): 45%
viability, T/C (second compound 1 µM, first compound 0.0316 µM): 87.1%
viability, T/C (second compound 1 µM, first compound 0.1 µM): 87.9%
viability, T/C (second compound 1 µM, first compound 0.316 µM): 88.4%
viability, T/C (second compound 1 µM, first compound 1 µM): 80.8%
viability, T/C (second compound 1 µM, first compound 3.16 µM): 67.9%
viability, T/C (second compound 1 µM, first compound 10 µM): 41.5%
viability, T/C (second compound 3.16 µM, first compound 0.0316 µM): 74.6%
viability, T/C (second compound 3.16 µM, first compound 0.1 µM): 73.8%
viability, T/C (second compound 3.16 µM, first compound 0.316 µM): 80.7%
viability, T/C (second compound 3.16 µM, first compound 1 µM): 76.5%
viability, T/C (second compound 3.16 µM, first compound 3.16 µM): 56.2%
viability, T/C (second compound 3.16 µM, first compound 10 µM): 29.3%
viability, T/C (second compound 10 µM, first compound 0.0316 µM): 72%
viability, T/C (second compound 10 µM, first compound 0.1 µM): 73.6%
viability, T/C (second compound 10 µM, first compound 0.316 µM): 59.9%
viability, T/C (second compound 10 µM, first compound 1 µM): 72%
viability, T/C (second compound 10 µM, first compound 3.16 µM): 50.9%
viability, T/C (second compound 10 µM, first compound 10 µM): 24.4%
